According to US11512090B2, “Muscarinic acetylcholine M1 receptor antagonists” (PIPELINE THERAPEUTICS, INC., priority 2018, dated 2022):
Like-named read-outs stand apart in the source and are kept apart here.

Columns and labels:
Format in all cases: cell-based
M3 = M3 (Homo sapiens, UniProt P20309); assay: In vitro functional assay of muscarinic acetylcholine receptor activity, M3
human M1 receptor = target: T1, human M1 receptor (Homo sapiens, UniProt P11229); assay: In vitro functional assay of muscarinic acetylcholine receptor activity (aequorin calcium flux, antagonist mode vs EC80 acetylcholine), M1
T1 sequence (P11229 1-460): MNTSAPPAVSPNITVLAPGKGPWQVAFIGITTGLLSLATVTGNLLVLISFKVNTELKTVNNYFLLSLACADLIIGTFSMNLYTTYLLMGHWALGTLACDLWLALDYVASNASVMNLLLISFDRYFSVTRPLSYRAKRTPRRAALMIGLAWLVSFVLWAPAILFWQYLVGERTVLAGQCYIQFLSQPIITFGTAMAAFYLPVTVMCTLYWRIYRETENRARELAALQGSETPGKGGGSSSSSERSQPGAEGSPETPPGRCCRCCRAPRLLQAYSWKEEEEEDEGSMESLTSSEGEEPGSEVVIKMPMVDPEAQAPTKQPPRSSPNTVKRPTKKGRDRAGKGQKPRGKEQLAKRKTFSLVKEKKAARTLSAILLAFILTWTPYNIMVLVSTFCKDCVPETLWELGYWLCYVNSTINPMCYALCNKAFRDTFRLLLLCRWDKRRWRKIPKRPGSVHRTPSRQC
Procedure, shortened: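 Antagonism at M1 was measured as a concentration-dependent reduction of the EC80 acetylcholine-evoked aequorin luminescence, from which IC50 was derived. Human M1 CHO-K1 aequorin cells were first loaded with 5 uM coelenterazine h for 4 h and exposed to compound for 30 min at room temperature.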

M2 = target: T2, M2 (Homo sapiens, UniProt P08172); assay: In vitro functional assay of muscarinic acetylcholine receptor activity, M2
T2 sequence (P08172 1-466): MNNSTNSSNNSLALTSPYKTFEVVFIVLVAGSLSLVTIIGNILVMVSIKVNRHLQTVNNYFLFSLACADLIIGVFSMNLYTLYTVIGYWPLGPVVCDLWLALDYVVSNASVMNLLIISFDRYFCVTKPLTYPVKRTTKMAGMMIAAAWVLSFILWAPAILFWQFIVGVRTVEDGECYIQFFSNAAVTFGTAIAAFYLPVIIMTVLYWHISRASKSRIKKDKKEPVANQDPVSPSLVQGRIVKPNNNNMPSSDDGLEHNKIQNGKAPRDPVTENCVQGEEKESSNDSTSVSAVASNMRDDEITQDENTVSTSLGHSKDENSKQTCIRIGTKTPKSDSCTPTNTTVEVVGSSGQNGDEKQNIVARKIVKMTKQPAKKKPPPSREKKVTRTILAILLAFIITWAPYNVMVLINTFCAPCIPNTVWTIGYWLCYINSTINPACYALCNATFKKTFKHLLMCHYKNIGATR

[1] = antagonist IC50 at M3, read-out: M3 IC50
[2] = CHO-K1 cells stably expressing human M1 receptor with Aequorin, decrease in EC80 acetylcholine response, read-out: M1 IC50
[3] = antagonist IC50 at M2, read-out: M2 IC50

M3, sequence (P20309 whole entry): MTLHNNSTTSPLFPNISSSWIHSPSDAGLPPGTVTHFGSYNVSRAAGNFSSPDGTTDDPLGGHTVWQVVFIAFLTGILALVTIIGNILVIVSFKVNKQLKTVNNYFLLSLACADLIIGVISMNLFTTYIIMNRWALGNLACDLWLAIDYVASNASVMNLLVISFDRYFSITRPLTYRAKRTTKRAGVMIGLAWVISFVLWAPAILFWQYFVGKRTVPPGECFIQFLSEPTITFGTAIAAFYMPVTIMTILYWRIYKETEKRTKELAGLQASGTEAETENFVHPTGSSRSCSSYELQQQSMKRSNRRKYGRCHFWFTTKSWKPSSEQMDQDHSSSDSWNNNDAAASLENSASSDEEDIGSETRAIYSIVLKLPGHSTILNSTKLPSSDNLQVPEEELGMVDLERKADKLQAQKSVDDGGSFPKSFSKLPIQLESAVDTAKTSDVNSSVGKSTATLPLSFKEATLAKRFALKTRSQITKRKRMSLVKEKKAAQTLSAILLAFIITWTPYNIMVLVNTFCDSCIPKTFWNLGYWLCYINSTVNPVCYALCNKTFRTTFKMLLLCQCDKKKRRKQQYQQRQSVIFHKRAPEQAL

| IC50 (M3; [1]) | IC50 (human M1 receptor; [2]) | IC50 (M2; [3]) | SMILES | IC50 (human M1 receptor) | IC50 (M2) | IC50 (M3) |
| --- | --- | --- | --- | --- | --- | --- |
| 1 to 10 µM | 1 to 10 µM | 1 to 10 µM | Cc1cc(F)cnc1N1CCN(C(=O)CCCS(=O)(=O)c2cccc3ncsc23)[C@@H](C)C1 [Example 97, (S)-4-(benzo[d]thiazol-7-ylsulfonyl)-1-(4-(5-fluoro-3-methylpyridin-2-yl)-2-methylpiperazin-1-yl)butan-1-one] | – | – | – |
| > 10 µM | 0.1 to 1 µM | 1 to 10 µM | C[C@H]1CN(c2cnccc2Cl)CCN1C(=O)CCS(=O)(=O)c1cccc2ncsc12 [Example 101, (S)-3-(benzo[d]thiazol-7-ylsulfonyl)-1-(4-(4-chloropyridin-3-yl)-2-methylpiperazin-1-yl)propan-1-one] | – | – | – |
| 1 to 10 µM | < 0.1 µM | 1 to 10 µM | O=C(CCS(=O)(=O)c1cccc2ncsc12)N1CCN(c2ccc(C(F)(F)F)cn2)CC1 [Example 102, 3-(benzo[d]thiazol-7-ylsulfonyl)-1-(4-(5-(trifluoromethyl)pyridin-2-yl)piperazin-1-yl)propan-1-one] | – | – | – |
| 1 to 10 µM | 1 to 10 µM | 1 to 10 µM | O=C(CCS(=O)(=O)c1cccc2ncsc12)N1CCN(c2c(Cl)cncc2Cl)CC1 [Example 105, 3-(benzo[d]thiazol-7-ylsulfonyl)-1-(4-(3,5-dichloropyridin-4-yl)piperazin-1-yl)propan-1-one] | – | – | – |
| 1 to 10 µM | 1 to 10 µM | > 10 µM | Cc1cncc(Cl)c1N1CCN(C(=O)CCS(=O)(=O)c2cccc3ncsc23)CC1 [Example 107, 3-(benzo[d]thiazol-7-ylsulfonyl)-1-(4-(3-chloro-5-methylpyridin-4-yl)piperazin-1-yl)propan-1-one] | – | – | – |
| > 10 µM | 1 to 10 µM | > 10 µM | Cc1nc2cccc(S(=O)(=O)CCC(=O)N3CCN(c4ccc(C(F)(F)F)cn4)CC3)c2o1 [Example 109, 3-((2-methylbenzo[d]oxazol-7-yl)sulfonyl)-1-(4-(5-(trifluoromethyl)pyridin-2-yl)piperazin-1-yl)propan-1-one] | – | – | – |
| 1 to 10 µM | 0.1 to 1 µM | > 10 µM | O=C(CCS(=O)(=O)c1cccc2ncsc12)N1CCN(c2ccc(Cl)cn2)CC1 [Example 110, 3-(benzo[d]thiazol-7-ylsulfonyl)-1-(4-(5-chloropyridin-2-yl)piperazin-1-yl)propan-1-one] | – | – | – |
| 1 to 10 µM | < 0.1 µM | 1 to 10 µM | N#Cc1ccc(N2CCN(C(=O)CCS(=O)(=O)c3cccc4ncsc34)CC2)nc1 [Example 111, 6-(4-(3-(benzo[d]thiazol-7-ylsulfonyl)propanoyl)piperazin-1-yl)nicotinonitrile] | – | – | – |
| 1 to 10 µM | 1 to 10 µM | > 10 µM | O=C(CCS(=O)(=O)c1cccc2ncsc12)N1CCN(c2ncc(C(F)(F)F)cn2)CC1 [Example 112, 3-(benzo[d]thiazol-7-ylsulfonyl)-1-(4-(5-(trifluoromethyl)pyrimidin-2-yl)piperazin-1-yl)propan-1-one] | – | – | – |
| > 10 µM | 1 to 10 µM | 1 to 10 µM | C[C@H]1CN(c2ccn3nccc3c2)CCN1C(=O)CCS(=O)(=O)c1cccc2ncsc12 [Example 113, (S)-3-(benzo[d]thiazol-7-ylsulfonyl)-1-(2-methyl-4-(pyrazolo[1,5-a]pyridin-5-yl)piperazin-1-yl)propan-1-one] | – | – | – |
| 1 to 10 µM | > 10 µM | > 10 µM | C[C@H]1CN(c2cnc(C(F)(F)F)nc2)CCN1C(=O)CCS(=O)(=O)c1cccc2ncsc12 [Example 115, (S)-3-(benzo[d]thiazol-7-ylsulfonyl)-1-(2-methyl-4-(2-(trifluoromethyl)pyrimidin-5-yl)piperazin-1-yl)propan-1-one] | – | – | – |
| 1 to 10 µM | 1 to 10 µM | 1 to 10 µM | C[C@H]1CN(c2cc(F)c(F)c(F)c2)CCN1C(=O)CCS(=O)(=O)c1cccc2ncsc12 [Example 116, (S)-3-(benzo[d]thiazol-7-ylsulfonyl)-1-(2-methyl-4-(3,4,5-trifluorophenyl)piperazin-1-yl)propan-1-one] | – | – | – |
| > 10 µM | 1 to 10 µM | > 10 µM | C[C@H]1CN(c2cc[nH]c(=O)c2)CCN1C(=O)CCS(=O)(=O)c1cccc2ncsc12 [Example 117, (S)-4-(4-(3-(benzo[d]thiazol-7-ylsulfonyl)propanoyl)-3-methylpiperazin-1-yl)pyridin-2(1H)-one] | – | – | – |

The next lines start with the compound.

| SMILES | IC50 (M3; [1]) | IC50 (human M1 receptor; [2]) | IC50 (M2; [3]) | IC50 (human M1 receptor) | IC50 (M2) | IC50 (M3) |
| --- | --- | --- | --- | --- | --- | --- |
| Cc1nc2cccc(S(=O)(=O)CCCC(=O)N3CCN(c4ncc(F)cc4C)C[C@@H]3C)c2o1 [Example 98, (S)-1-(4-(5-fluoro-3-methylpyridin-2-yl)-2-methylpiperazin-1-yl)-4-((2-methylbenzo[d]oxazol-7-yl)sulfonyl)butan-1-one] | > 10 µM | 1 to 10 µM | 1 to 10 µM | – | – | – |
| O=C(CCS(=O)(=O)c1cccc2ncsc12)N1CCN(c2ccnc(C(F)(F)F)c2)CC1 [Example 99, 3-(benzo[d]thiazol-7-ylsulfonyl)-1-(4-(2-(trifluoromethyl)pyridin-4-yl)piperazin-1-yl)propan-1-one] | > 10 µM | 1 to 10 µM | 1 to 10 µM | – | – | – |
| Cc1nc2cccc(S(=O)(=O)CCC(=O)N3C[C@H]4CC[C@@H](C3)N4c3ccncc3F)c2o1 [Example 103, 1-((1R,5S)-8-(3-fluoropyridin-4-yl)-3,8-diazabicyclo[3.2.1]octan-3-yl)-3-((2-methylbenzo[d]oxazol-7-yl)sulfonyl)propan-1-one] | 1 to 10 µM | – | – | < 0.1 µM | 0.1 to 1 µM | – |
| O=C(CCS(=O)(=O)c1cccc2nccn12)N1C[C@H]2CC[C@@H](C1)N2c1ccncc1F [Example 104, 1-((1R,5S)-8-(3-fluoropyridin-4-yl)-3,8-diazabicyclo[3.2.1]octan-3-yl)-3-(imidazo[1,2-a]pyridin-5-ylsulfonyl)propan-1-one] | 1 to 10 µM | – | 1 to 10 µM | < 0.1 µM | – | – |
| O=C(CCS(=O)(=O)c1cccc2nccn12)N1CCN(c2ccc(C(F)(F)F)cn2)CC1 [Example 106, 3-(imidazo[1,2-a]pyridin-5-ylsulfonyl)-1-(4-(5-(trifluoromethyl)pyridin-2-yl)piperazin-1-yl)propan-1-one] | > 10 µM | 1 to 10 µM | 1 to 10 µM | – | – | – |
| Cc1cncc(Cl)c1N1CCN(C(=O)CCS(=O)(=O)c2cccc3ncsc23)[C@@H](C)C1 [Example 108, (S)-3-(benzo[d]thiazol-7-ylsulfonyl)-1-(4-(3-chloro-5-methylpyridin-4-yl)-2-methylpiperazin-1-yl)propan-1-one] | 1 to 10 µM | 0.1 to 1 µM | > 10 µM | – | – | – |
| C[C@H]1CN(c2ccc(C#N)nc2)CCN1C(=O)CCS(=O)(=O)c1cccc2ncsc12 [Example 114, (S)-5-(4-(3-(benzo[d]thiazol-7-ylsulfonyl)propanoyl)-3-methylpiperazin-1-yl)picolinonitrile] | 1 to 10 µM | 0.1 to 1 µM | 1 to 10 µM | – | – | – |
| O=C(CNCCc1cccn2nccc12)N1C[C@H]2CC[C@@H](C1)N2c1ccncc1F [Example 118, 1-((1R,5S)-8-(3-fluoropyridin-4-yl)-3,8-diazabicyclo[3.2.1]octan-3-yl)-2-((2-(pyrazolo[1,5-a]pyridin-4-yl)ethyl)amino)ethan-1-one] | > 10 µM | 1 to 10 µM | > 10 µM | – | – | – |
| C[C@H]1CN(c2ccc(C#N)cn2)CCN1C(=O)CCS(=O)(=O)c1cccc2ncsc12 [Example 120, 6-[(3S)-4-[3-(1,3-benzothiazole-7-sulfonyl)propanoyl]-3-methylpiperazin-1-yl]pyridine-3-carbonitrile] | 1 to 10 µM | 0.1 to 1 µM | 1 to 10 µM | – | – | – |
| O=C(CCS(=O)(=O)c1c(F)ccc2nccn12)N1CC2CCC(C1)N2c1ccc(F)cn1 [Example 121, 3-({6-fluoroimidazo[1,2-a]pyridin-5-yl}sulfonyl)-1-[8-(5-fluoropyridin-2-yl)-3,8-diazabicyclo[3.2.1]octan-3-yl]propan-1-one] | < 0.1 µM | – | 0.1 to 1 µM | < 0.1 µM | – | – |
| N#Cc1cc(N2C3CCC2CN(C(=O)CCS(=O)(=O)c2cccc4ncsc24)C3)ccc1F [Example 122, 5-{3-[3-(1,3-benzothiazole-7-sulfonyl)propanoyl]-3,8-diazabicyclo[3.2.1]octan-8-yl}-2-fluorobenzonitrile] | – | – | > 10 µM | < 0.1 µM | – | < 0.1 µM |
